Assay results: PubChem BioAssay (NCI)
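All cell lines were grown in 96-well plates and treated with compound for 48 hours. Definition used: TGI = concentration required for complete inhibition of growth.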

Assays:
Assay in all cases: growth of human tumour cells (NCI), 48 h
SW-620 colon = tested on: SW-620 colon
UACC-62 melanoma = tested on: UACC-62 melanoma
SNB-19 CNS = tested on: SNB-19 CNS
DU-145 prostate = tested on: DU-145 prostate
CCRF-CEM leukemia = tested on: CCRF-CEM leukemia
OVCAR-3 ovarian = tested on: OVCAR-3 ovarian
A498 renal = tested on: A498 renal
MALME-3M melanoma = tested on: MALME-3M melanoma
HOP-92 NSCLC = tested on: HOP-92 NSCLC
IGROV1 ovarian = tested on: IGROV1 ovarian
ACHN renal = tested on: ACHN renal
HOP-62 NSCLC = tested on: HOP-62 NSCLC
HCT-15 colon = tested on: HCT-15 colon
HT29 colon = tested on: HT29 colon
CAKI-1 renal = tested on: CAKI-1 renal
HS 578T breast = tested on: HS 578T breast
786-0 renal = tested on: 786-0 renal
T-47D breast = tested on: T-47D breast
K-562 leukemia = tested on: K-562 leukemia
RPMI-8226 leukemia = tested on: RPMI-8226 leukemia
TK-10 renal = tested on: TK-10 renal
EKVX NSCLC = tested on: EKVX NSCLC
SF-268 CNS = tested on: SF-268 CNS
SN12C renal = tested on: SN12C renal
SK-MEL-28 melanoma = tested on: SK-MEL-28 melanoma
BT-549 breast = tested on: BT-549 breast
NCI-H23 lung = tested on: NCI-H23 lung
OVCAR-8 ovarian = tested on: OVCAR-8 ovarian
SK-MEL-5 melanoma = tested on: SK-MEL-5 melanoma
OVCAR-4 ovarian = tested on: OVCAR-4 ovarian
NCI-H226 lung = tested on: NCI-H226 lung
SF-295 CNS = tested on: SF-295 CNS
MOLT-4 leukemia = tested on: MOLT-4 leukemia
SK-MEL-2 melanoma = tested on: SK-MEL-2 melanoma
MDA-MB-231 breast = tested on: MDA-MB-231 breast
NCI-H460 lung = tested on: NCI-H460 lung
M14 melanoma = tested on: M14 melanoma
UACC-257 melanoma = tested on: UACC-257 melanoma
HCC-2998 colon = tested on: HCC-2998 colon
OVCAR-5 ovarian = tested on: OVCAR-5 ovarian
U251 CNS = tested on: U251 CNS
RXF 393 renal = tested on: RXF 393 renal
KM12 colon = tested on: KM12 colon
NCI-H522 lung = tested on: NCI-H522 lung
A549 NSCLC = tested on: A549 NSCLC
SF-539 CNS = tested on: SF-539 CNS
MDA-MB-435 = tested on: MDA-MB-435
COLO 205 colon = tested on: COLO 205 colon
HL-60(TB) leukemia = tested on: HL-60(TB) leukemia
NCI/ADR-RES ovarian = tested on: NCI/ADR-RES ovarian
SR leukemia = tested on: SR leukemia
UO-31 renal = tested on: UO-31 renal
MCF7 breast = tested on: MCF7 breast
SNB-75 CNS = tested on: SNB-75 CNS
HCT-116 colon = tested on: HCT-116 colon
PC-3 prostate = tested on: PC-3 prostate
LOX IMVI melanoma = tested on: LOX IMVI melanoma
SK-OV-3 ovarian = tested on: SK-OV-3 ovarian

CCN(CC)CCNc1ccc(N=Nc2ccc(S(N)(=O)=O)cc2)c2ccccc12
TGI (SW-620 colon): 14.6 µM | TGI (UACC-62 melanoma): 25.7 µM | TGI (SNB-19 CNS): 27.7 µM | TGI (DU-145 prostate): 28.2 µM | TGI (CCRF-CEM leukemia): 38.3 µM | TGI (OVCAR-3 ovarian): 5.55 µM | TGI (A498 renal): 29.7 µM | TGI (MALME-3M melanoma): 36 µM | TGI (HOP-92 NSCLC): 35.9 µM | TGI (IGROV1 ovarian): 28.8 µM | TGI (ACHN renal): 38.8 µM | TGI (HOP-62 NSCLC): > 100 µM | TGI (HCT-15 colon): > 100 µM | TGI (HT29 colon): 34.9 µM | TGI (CAKI-1 renal): 31.2 µM | TGI (HS 578T breast): 55.9 µM | TGI (786-0 renal): > 100 µM | TGI (T-47D breast): 8.27 µM | TGI (K-562 leukemia): > 100 µM | TGI (RPMI-8226 leukemia): 18.7 µM | TGI (TK-10 renal): 40.3 µM | TGI (EKVX NSCLC): 41.2 µM | TGI (SF-268 CNS): 37.8 µM | TGI (SN12C renal): 81 µM | TGI (SK-MEL-28 melanoma): 28.1 µM | TGI (BT-549 breast): 34 µM | TGI (NCI-H23 lung): 50.7 µM | TGI (OVCAR-8 ovarian): 21.3 µM | TGI (SK-MEL-5 melanoma): 20.3 µM | TGI (OVCAR-4 ovarian): 30.9 µM | TGI (NCI-H226 lung): 72.7 µM | TGI (SF-295 CNS): 15.1 µM | TGI (MOLT-4 leukemia): 25.6 µM | TGI (SK-MEL-2 melanoma): 28.2 µM | TGI (MDA-MB-231 breast): 27.8 µM | TGI (NCI-H460 lung): > 100 µM | TGI (M14 melanoma): 23.3 µM | TGI (UACC-257 melanoma): 31.4 µM | TGI (HCC-2998 colon): 29.1 µM | TGI (OVCAR-5 ovarian): 88.1 µM | TGI (U251 CNS): > 100 µM | TGI (RXF 393 renal): 12.7 µM | TGI (KM12 colon): 39 µM | TGI (NCI-H522 lung): 32 µM | TGI (A549 NSCLC): 40.5 µM | TGI (SF-539 CNS): 12.8 µM | TGI (MDA-MB-435): 23.6 µM | TGI (COLO 205 colon): > 100 µM | TGI (HL-60(TB) leukemia): 36.9 µM | TGI (NCI/ADR-RES ovarian): > 100 µM | TGI (SR leukemia): 4.94 µM | TGI (UO-31 renal): 20.8 µM | TGI (MCF7 breast): 47 µM | TGI (SNB-75 CNS): 27 µM | TGI (HCT-116 colon): > 100 µM | TGI (PC-3 prostate): 29.7 µM

O=C1OCC2=Nc3cccc4cccc(c34)N12
TGI (SW-620 colon): > 100 µM | TGI (UACC-62 melanoma): > 100 µM | TGI (SNB-19 CNS): > 100 µM | TGI (DU-145 prostate): > 100 µM | TGI (CCRF-CEM leukemia): > 100 µM | TGI (OVCAR-3 ovarian): > 100 µM | TGI (IGROV1 ovarian): > 100 µM | TGI (ACHN renal): > 100 µM | TGI (HOP-62 NSCLC): > 100 µM | TGI (HCT-15 colon): > 100 µM | TGI (HT29 colon): > 100 µM | TGI (CAKI-1 renal): > 100 µM | TGI (HS 578T breast): > 100 µM | TGI (786-0 renal): > 100 µM | TGI (T-47D breast): > 100 µM | TGI (K-562 leukemia): > 100 µM | TGI (TK-10 renal): > 100 µM | TGI (EKVX NSCLC): > 100 µM | TGI (SF-268 CNS): > 100 µM | TGI (SN12C renal): > 100 µM | TGI (SK-MEL-28 melanoma): > 100 µM | TGI (BT-549 breast): > 100 µM | TGI (NCI-H23 lung): > 100 µM | TGI (OVCAR-8 ovarian): > 100 µM | TGI (SK-MEL-5 melanoma): > 100 µM | TGI (OVCAR-4 ovarian): > 100 µM | TGI (NCI-H226 lung): > 100 µM | TGI (SF-295 CNS): > 100 µM | TGI (LOX IMVI melanoma): > 100 µM | TGI (SK-OV-3 ovarian): > 100 µM | TGI (MOLT-4 leukemia): > 100 µM | TGI (MDA-MB-231 breast): > 100 µM | TGI (NCI-H460 lung): > 100 µM | TGI (M14 melanoma): > 100 µM | TGI (UACC-257 melanoma): > 100 µM | TGI (HCC-2998 colon): > 100 µM | TGI (U251 CNS): > 100 µM | TGI (RXF 393 renal): > 100 µM | TGI (KM12 colon): > 100 µM | TGI (NCI-H522 lung): > 100 µM | TGI (A549 NSCLC): > 100 µM | TGI (SF-539 CNS): > 100 µM | TGI (MDA-MB-435): > 100 µM | TGI (COLO 205 colon): > 100 µM | TGI (HL-60(TB) leukemia): > 100 µM | TGI (NCI/ADR-RES ovarian): > 100 µM | TGI (SR leukemia): > 100 µM | TGI (UO-31 renal): > 100 µM | TGI (MCF7 breast): > 100 µM | TGI (SNB-75 CNS): > 100 µM | TGI (HCT-116 colon): > 100 µM | TGI (PC-3 prostate): > 100 µM
